Data as given in ChEMBL document CHEMBL1155502, “Modulation of 11beta-hydroxysteroid dehydrogenase type 1 activity by 1,5-substituted 1H-tetrazoles” (Bioorg Med Chem Lett, 2010).

Assay: Metabolic stability in human liver microsomes assessed as compound remaining after 30 mins
Assay type: ADME, Microsome
Details: read-out: Stability

remaining at 0.5 h [%] | Structure (SMILES)
9 | COc1ccccc1-c1nnnn1CCC(=O)c1ccccc1
14 | COc1cccc(C(=O)CCc2nnnn2-c2ccccc2)c1
11 | O=C(CCn1nnnc1-c1ccc2c(c1)OCO2)c1ccccc1
37 | N#Cc1ccc(-n2nnnc2CCC(=O)c2ccccc2)cc1
25 | CC(C)(C)C(=O)C[S+]([O-])c1nnnn1-c1ccccc1 (configuration not stated)
4 | CC(C)(C)C(=O)CS(=O)(=O)c1nnnn1-c1ccccc1
6 | O=C(CCn1nnnc1-c1ccsc1)c1ccccc1
22 | Cc1ccccc1-n1nnnc1CCC(=O)c1ccccc1
34 | O=C(CCc1nnnn1-c1ccc(Cl)cc1)c1ccccc1
42 | COc1ccccc1-n1nnnc1CCC(=O)c1ccccc1
31 | O=C(CCn1nnnc1-c1cnccn1)c1ccccc1
2 | Cc1cccc(-n2nnnc2CCC(=O)c2ccccc2)c1
1 | O=C(CCc1nnnn1C1CCc2ccccc21)c1ccccc1 (configuration not stated)

Further lines, the compound ahead of its results:

Structure (SMILES) | remaining at 0.5 h [%]
O=C(CCc1nnnn1-c1ccccc1)C1CCCCC1 | 11
O=C(COc1nnnn1-c1ccccc1)c1ccccc1 | 4
O=C(CCc1nnnn1Cc1ccccc1)c1ccccc1 | 33
O=C(CCn1nnnc1-c1cccc(Cl)c1)c1ccccc1 | 20
O=C(CCn1nnnc1-c1cccnc1)c1ccccc1 | 81
O=C(CCn1nnnc1-c1ccccc1)c1ccccc1 | 29
COc1cccc(-n2nnnc2CCC(=O)c2ccccc2)c1 | 6
O=C(CCc1nnnn1-c1ccccc1)c1cccc(F)c1 | 21
O=C(CCc1nnnn1-c1ccccc1)c1cccc(Cl)c1 | 8
O=C(CCc1nnnn1C1CCCCC1)c1ccccc1 | 14
O=C(CCc1nnnn1-c1ccccc1)c1ccccc1 | 88
COc1ccc(-n2nnnc2CCC(=O)c2ccccc2)cc1 | 12
O=C(CCc1nnnn1C1CC1)c1ccccc1 | 73
Cc1ccc(-n2nnnc2CCC(=O)c2ccccc2)cc1 | 2
O=C(CCn1nnnc1-c1ncccn1)c1ccccc1 | 53
COc1ccc(-c2nnnn2CCC(=O)c2ccccc2)cc1 | 18
O=C(CCn1nnnc1-c1ccccc1Cl)c1ccccc1 | 5
O=C(CCc1nnnn1-c1cccnc1)c1ccccc1 | 81
O=C(CCc1nnnn1C1CCCc2ccccc21)c1ccccc1 (configuration not stated) | 7
